Measured values: ChEMBL document CHEMBL3227990, “Aminotetralins as narcotic antagonists. Synthesis and opiate-related activity of 1-phenyl-2-aminotetralin derivatives” (J Med Chem, 1979)

Legend:
Mus musculus [1] = species on record: Mus musculus; assay: Toxicity in mouse assessed as convulsant activity; format: organism-based; settings: in vivo
Mus musculus [2] = species on record: Mus musculus; assay: Inhibition of morphine-induced analgesia in mouse assessed as dose required for 50% antagonism of analgesia by tail flick test; format: functional
Mus musculus [3] = species on record: Mus musculus; assay: Analgesic activity in mouse by hot plate test; format: functional

SMILES | Activity (Mus musculus [1]) | AD50 (Mus musculus [2]) | ED50 (Mus musculus [3]) [mg/kg]
CN(CC1CC1)[C@@H]1CCc2ccccc2[C@@]1(O)c1ccccc1.Cl | Toxic | >=30 mg kg-1 | 
CO[C@@]1(c2ccccc2)c2ccccc2CC[C@H]1N(C)CC1CC1.Cl |  | 33.5 mg/kg | ≥ 50
CCC(=O)O[C@@]1(c2ccccc2)c2ccccc2CC[C@H]1N(C)CC1CC1.Cl |  | >=100 mg kg-1 | 17.8
CN1CC[C@]23c4c5ccc(O)c4O[C@H]2[C@@H](O)C=C[C@H]3[C@H]1C5 [MORPHINE] |  |  | 1.1
